This passage reports EC50, AC50 and IC50 results from ChEMBL document CHEMBL1201862, “PubChem BioAssay data set” (2004).

Calls of active or inactive are those of the source. For most assays here, no stated cut-off is given here; in the data, actives have a measured EC50 and inactives only a lower limit. Where only a bound is given, the exact number is not on record here.

Assay [1] in a line: Luminescence Cell-Based Dose Confirmation HTS to Identify Activators of 5'UTR Stem-Loop Driven Alpha-Synuclein mRNA Translation in H4 Neuroglioblastoma Cells. [Related pubchem assays: 1829 (Project Summary), 1814 (Primary HTS)]. It is filed as functional.
Assay [2] is described as follows: Luminescence Cell-Based Dose Response HTS to Identify Activators of 5'UTR Stem-Loop Driven Prion Protein mRNA Translation in H4-C Neuroglioblastoma Cells. [Related pubchem assays: 1829 (Project Summary), 1814 (Primary HTS)]. It is filed as functional.
Assay [3] has as its system H4. The assay can be described thus: Luminescence Cell-Based Dose Response HTS to Identify Activators of 5'UTR Stem-Loop Driven Prion Protein mRNA Translation in H4 Neuroglioblastoma Cells. [Related pubchem assays: 1829 (Project Summary), 1814 (Primary HTS)]. The note with it: Homo sapiens. It is filed as functional.
Assay [4] can be described thus: Luminescence Cell-Based Dose Response HTS to Identify Activators of Luciferase Translation or Activity in H4 […] Cells. [Related pubchem assays: 1829 (Project Summary), 1814 (Primary HTS)]. Format: functional.
The nature of assay [5]: Luminescence Cell-Based Dose Retest to Confirm Activators of 5'UTR Stem-Loop Driven Alpha-Synuclein mRNA Translation in H4 Neuroglioblastoma Cells. [Related pubchem assays (depositor defined):AID1813, AID1829]. Format: functional.
The nature of assay [6]: Luminescence Cell-Based Dose Response HTS to Identify Activators of Luciferase Translation or Activity in H4-C Neuroglioblastoma Cells. [Related pubchem assays: 1829 (Project Summary), 1814 (Primary HTS)]. It is filed as functional.
In assay [7] the target is T1, Heat shock factor protein 1 (Mus musculus, UniProt P38532).
T1 sequence (P38532 whole entry): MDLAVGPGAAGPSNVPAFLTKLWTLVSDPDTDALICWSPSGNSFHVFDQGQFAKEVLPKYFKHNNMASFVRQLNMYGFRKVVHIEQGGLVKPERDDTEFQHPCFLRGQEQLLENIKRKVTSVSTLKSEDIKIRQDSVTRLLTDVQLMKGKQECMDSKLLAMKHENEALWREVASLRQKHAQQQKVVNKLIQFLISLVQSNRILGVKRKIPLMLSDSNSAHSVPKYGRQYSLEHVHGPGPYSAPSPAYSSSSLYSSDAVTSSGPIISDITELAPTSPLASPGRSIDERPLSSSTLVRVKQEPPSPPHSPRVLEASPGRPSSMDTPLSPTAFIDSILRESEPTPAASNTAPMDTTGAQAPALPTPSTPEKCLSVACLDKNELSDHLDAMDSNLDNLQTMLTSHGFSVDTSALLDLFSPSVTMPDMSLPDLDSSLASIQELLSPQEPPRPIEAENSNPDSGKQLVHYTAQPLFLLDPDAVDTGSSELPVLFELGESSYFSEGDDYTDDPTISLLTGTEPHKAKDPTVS
In words: enhancement of HSF1-driven luciferase signal – cell-based, NIH3T3, luminescence, dose retest, confirmation (AID 435004).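 Further: stress induced by proteasome inhibitor MG132 added 30 min after compound; luciferase reporter driven by HSF1 response element in NIH3T3 cells; actives raise luminescence as potentiators of the MG132 stress response.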 It is filed as functional.

Assay [8] has as its system BJ. The assay can be described thus: BJ-TERT fibroblast viability loss – cell-based, RAS-independent, luminescence, dose response (AID 1933). It is filed as functional. Conditions: Homo sapiens.
Assay [9] has as its target CAAX prenyl protease 2 (Homo sapiens, UniProt Q9Y256). In words: inhibition of Ras-converting CAAX protease Rce1 – biochemical, yeast membranes, quenched-peptide fluorescence, cherry-pick, dose response (AID 588849).
Assay [10] has as its target CAAX prenyl protease 1 (Saccharomyces cerevisiae S288c, UniProt P47154). The assay can be described thus: yeast CAAX protease Ste24 inhibition – biochemical, S. cerevisiae, plate reader, cherry-pick, dose response (AID 488815).
The nature of assay [11]: Luminescence Cell-Based Dose Confirmation HTS to Identify Inhibitors of Platelet Dense Granule Release. [Related pubchem assays: 1663 (Primary HTS), 1678 (Summary of Project)]. Format: functional.
A short description of assay [12]: alpha-synuclein stem-loop luciferase translation blockers – H4 neuroglioma cells, luminescence, confirmation (AID 1988). Format: functional, cell-based.
For assay [13], the target named is Trypsin (Sus scrofa, UniProt P00761). The assay can be described thus: trypsin protease activity blockade – biochemical, quenched peptide fluorescence, cherry-pick, selectivity assay for Rce1 protease inhibitor project, dose response (AID 488789).
Chain of Trypsin (P00761 whole entry): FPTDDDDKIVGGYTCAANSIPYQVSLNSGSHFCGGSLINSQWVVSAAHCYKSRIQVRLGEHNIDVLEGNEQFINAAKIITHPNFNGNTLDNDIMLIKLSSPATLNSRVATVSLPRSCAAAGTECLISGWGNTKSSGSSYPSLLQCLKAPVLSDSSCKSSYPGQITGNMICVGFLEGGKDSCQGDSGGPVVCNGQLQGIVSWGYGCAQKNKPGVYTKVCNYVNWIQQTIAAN
A short description of assay [14]: DRD fibroblast viability loss – cell-based, non-viral oncogenic, luminescence, dose response (AID 1934). It is filed as functional. The note with it: Homo sapiens.
Assay [15] addresses T2, CAAX prenyl protease 2 (Saccharomyces cerevisiae S288c, UniProt Q03530).
T2 sequence (Q03530 whole entry): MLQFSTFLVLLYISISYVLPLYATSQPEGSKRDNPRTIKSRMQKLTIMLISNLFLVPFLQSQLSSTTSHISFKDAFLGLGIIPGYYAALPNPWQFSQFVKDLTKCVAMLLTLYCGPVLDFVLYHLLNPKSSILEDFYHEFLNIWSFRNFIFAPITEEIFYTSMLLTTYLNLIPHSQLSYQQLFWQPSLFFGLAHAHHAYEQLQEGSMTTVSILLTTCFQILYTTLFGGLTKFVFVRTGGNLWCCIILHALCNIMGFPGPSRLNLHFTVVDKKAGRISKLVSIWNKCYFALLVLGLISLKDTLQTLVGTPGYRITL
It is filed as biochemical.

In assay [16] the target is Luciferin 4-monooxygenase (Photinus pyralis, UniProt P08659). The assay can be described thus: inhibition of purified Photinus pyralis luciferase – biochemical, luminescence, dose response (AID 1891).
Chain of Luciferin 4-monooxygenase (P08659 whole entry): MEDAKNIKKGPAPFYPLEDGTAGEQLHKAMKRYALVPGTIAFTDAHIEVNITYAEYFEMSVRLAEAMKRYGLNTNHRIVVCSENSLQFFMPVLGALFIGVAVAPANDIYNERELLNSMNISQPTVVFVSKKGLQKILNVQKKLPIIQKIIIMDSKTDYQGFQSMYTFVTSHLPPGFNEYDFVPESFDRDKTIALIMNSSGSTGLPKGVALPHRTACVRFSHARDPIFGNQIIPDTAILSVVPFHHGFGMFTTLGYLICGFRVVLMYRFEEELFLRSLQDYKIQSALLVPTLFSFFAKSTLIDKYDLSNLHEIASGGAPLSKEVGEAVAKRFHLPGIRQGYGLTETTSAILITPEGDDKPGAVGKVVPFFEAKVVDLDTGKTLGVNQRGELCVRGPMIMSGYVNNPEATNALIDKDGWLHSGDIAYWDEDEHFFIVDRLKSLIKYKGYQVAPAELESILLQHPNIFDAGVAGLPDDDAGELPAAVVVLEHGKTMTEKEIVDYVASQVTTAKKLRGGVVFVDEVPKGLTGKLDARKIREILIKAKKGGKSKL
The subject of assay [17] is BJ. The assay can be described thus: BJ-TERT-LT-ST fibroblast viability loss – cell-based, RAS-independent, luminescence, dose response (AID 1935).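 Further: BJ fibroblasts immortalized with TERT plus LT and ST oncogenes.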 Format: functional. The note with it: Homo sapiens.
Assay [18] in a line: Luminescence Cell-Based Dose Response HTS to Identify Inhibitors of 5'UTR Stem-Loop Driven Prion Protein mRNA Translation in H4 Neuroglioblastoma Cells. [Related pubchem assays: 1827 (Project Summary), 1813 (Primary HTS)]. Format: functional.
Assay [19] is described as follows: ADP-Glo luciferase signal interference – biochemical, luminescence, cherry-picked samples, set 2, artefact control for CDK5 inhibitor project, dose response (AID 504546). It is filed as functional, cell-based.
Assay [20] concerns the target Cyclin-dependent kinase 5/CDK5 activator 1 (Homo sapiens, UniProt Q00535). In words: blockade of human CDK5 activity – biochemical, cherry-picked samples, set 2, dose response (AID 504545).
Assay [21] is described as follows: luciferase reporter signal suppression in cells – H4 neuroglioma cells, luminescence, dose response (AID 1990). It is filed as functional, cell-based. (In a reporter assay the amount or activity of a reporter protein is the signal.)
In assay [22] the test system is BJ. The assay can be described thus: cells. Format: functional, cell-based. Conditions: Homo sapiens.
Assay [23] has as its target Neurotensin receptor type 1 (Homo sapiens, UniProt P30989). Format: functional.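 Further: Image-based confirmatory dose-response assay measuring agonist activity at NTR1; NTR1-expressing U2OS osteosarcoma cells imaged for beta-arrestin GFP spot formation; agonist potency where compounds increase beta-arrestin recruitment.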
Assay [24] concerns the target T3, RNA-binding protein pos-1 (Caenorhabditis elegans, UniProt G5EF15).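 Further: purified POS-1 fused to maltose binding protein made in E. coli; potency of compounds blocking POS-1 binding to fluorescent RNA.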
T3 sequence (G5EF15 whole entry): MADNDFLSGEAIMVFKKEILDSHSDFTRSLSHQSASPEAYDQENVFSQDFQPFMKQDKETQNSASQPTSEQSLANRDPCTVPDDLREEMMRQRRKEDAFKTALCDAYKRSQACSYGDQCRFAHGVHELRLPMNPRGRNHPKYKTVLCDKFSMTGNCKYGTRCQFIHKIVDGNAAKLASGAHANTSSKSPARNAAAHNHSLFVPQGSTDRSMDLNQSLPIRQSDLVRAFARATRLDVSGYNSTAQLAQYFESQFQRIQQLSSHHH
The assay can be described thus: disruptors of C. elegans POS-1 RNA interaction – biochemical, fluorescence polarization, dose response (AID 1964). (In general: Polarisation of emitted light reports the rotation of a fluorescent probe.)

The target of assay [25] is T4, Zinc finger protein mex-5 (Caenorhabditis elegans, UniProt Q9XUB2).
T4 sequence (Q9XUB2 whole entry): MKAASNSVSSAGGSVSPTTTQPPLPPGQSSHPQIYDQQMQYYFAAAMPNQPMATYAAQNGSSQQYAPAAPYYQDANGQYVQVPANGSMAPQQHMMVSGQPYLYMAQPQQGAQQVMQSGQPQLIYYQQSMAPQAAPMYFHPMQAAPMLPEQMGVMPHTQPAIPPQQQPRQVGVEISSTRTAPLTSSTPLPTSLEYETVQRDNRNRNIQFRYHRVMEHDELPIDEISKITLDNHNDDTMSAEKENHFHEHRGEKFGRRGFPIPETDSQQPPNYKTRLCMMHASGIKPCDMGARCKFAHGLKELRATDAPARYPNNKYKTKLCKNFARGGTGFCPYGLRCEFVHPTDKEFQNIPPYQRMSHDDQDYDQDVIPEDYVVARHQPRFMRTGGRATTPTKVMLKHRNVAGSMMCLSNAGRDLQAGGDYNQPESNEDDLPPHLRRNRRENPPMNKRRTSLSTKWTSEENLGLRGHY
In words: potency of MEX-5 RNA-binding blockers – biochemical, C. elegans, fluorescence polarization, dose response (AID 1960).

For assay [26], the target named is Scavenger receptor class B member 1 (Mus musculus, UniProt Q61009). The assay can be described thus: mouse SR-BI DiI-HDL uptake blockers – ldlA[mSR-BI] cells, fluorescence, cherry pick, dose response (AID 493194).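 Further: cellular uptake of fluorescent DiI-labeled HDL measured as cell fluorescence.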 It is filed as functional, cell-based.
Chain of Scavenger receptor class B member 1 (Q61009 whole entry): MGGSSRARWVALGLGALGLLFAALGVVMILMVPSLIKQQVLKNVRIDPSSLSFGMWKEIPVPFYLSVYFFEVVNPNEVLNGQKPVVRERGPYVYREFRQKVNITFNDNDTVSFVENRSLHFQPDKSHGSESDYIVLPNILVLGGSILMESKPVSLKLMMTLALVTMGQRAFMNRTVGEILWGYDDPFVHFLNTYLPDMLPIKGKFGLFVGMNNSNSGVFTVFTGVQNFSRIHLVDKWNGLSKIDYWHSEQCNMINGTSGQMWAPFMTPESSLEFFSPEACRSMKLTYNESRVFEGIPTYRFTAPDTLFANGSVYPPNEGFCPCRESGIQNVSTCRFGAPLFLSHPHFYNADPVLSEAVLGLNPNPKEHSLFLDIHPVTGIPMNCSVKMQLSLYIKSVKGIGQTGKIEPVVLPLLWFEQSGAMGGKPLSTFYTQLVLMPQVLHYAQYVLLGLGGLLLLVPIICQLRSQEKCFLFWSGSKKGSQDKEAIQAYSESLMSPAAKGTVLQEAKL
Assay [27] in a line: protection from phage-mediated lysis, alamar blue read-out – E. coli UTI89, K1F phage, bacterial capsule biogenesis inhibitors (AID 488966). Format: functional. On the technique in general: Alamar Blue is a resazurin reagent that responds to reducing activity.
The target of assay [28] is Metabotropic glutamate receptor 4 (Rattus norvegicus, UniProt P31423). The assay can be described thus: Modulation of the Metabotropic Glutamate Receptor mGluR4: Rat PAM Potency. [Related pubchem assays (depositor defined):AID2437, AID2807]. It is filed as functional.
Chain of Metabotropic glutamate receptor 4 (Rattus norvegicus, UniProt P31423) (P31423 whole entry): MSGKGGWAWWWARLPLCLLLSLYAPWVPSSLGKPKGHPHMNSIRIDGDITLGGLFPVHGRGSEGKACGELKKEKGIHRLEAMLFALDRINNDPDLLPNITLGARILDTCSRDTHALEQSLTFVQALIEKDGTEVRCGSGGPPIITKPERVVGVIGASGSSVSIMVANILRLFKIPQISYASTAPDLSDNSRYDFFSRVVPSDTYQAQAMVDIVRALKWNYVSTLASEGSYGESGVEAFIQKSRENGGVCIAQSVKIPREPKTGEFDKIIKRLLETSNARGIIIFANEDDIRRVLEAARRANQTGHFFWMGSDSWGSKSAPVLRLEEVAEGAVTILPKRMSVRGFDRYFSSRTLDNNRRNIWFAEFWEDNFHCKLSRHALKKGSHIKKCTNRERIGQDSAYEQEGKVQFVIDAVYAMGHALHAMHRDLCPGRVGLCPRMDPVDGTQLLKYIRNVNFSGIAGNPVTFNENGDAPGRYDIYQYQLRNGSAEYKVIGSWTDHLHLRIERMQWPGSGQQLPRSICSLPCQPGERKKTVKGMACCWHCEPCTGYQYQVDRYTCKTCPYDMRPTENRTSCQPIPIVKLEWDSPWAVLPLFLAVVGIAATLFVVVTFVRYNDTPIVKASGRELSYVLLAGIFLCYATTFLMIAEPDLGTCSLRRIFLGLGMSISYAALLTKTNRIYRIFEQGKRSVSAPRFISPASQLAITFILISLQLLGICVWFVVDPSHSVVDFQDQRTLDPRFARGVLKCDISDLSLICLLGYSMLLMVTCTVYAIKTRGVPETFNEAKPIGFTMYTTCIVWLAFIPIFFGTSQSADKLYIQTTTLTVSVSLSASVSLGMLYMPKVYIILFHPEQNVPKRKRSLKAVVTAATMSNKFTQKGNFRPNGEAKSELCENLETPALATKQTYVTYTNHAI
The target of assay [29] is Metabotropic glutamate receptor 4 (Homo sapiens, UniProt Q14833). In words: Modulation of the Metabotropic Glutamate Receptor mGluR4: Potency at human mGluR4. Modulation of intracellular Ca2+ using Fluo-4, AM, in CHO expressing recombinant receptor [Related pubchem assays (depositor defined):AID2437, AID2807]. It is filed as functional, cell-based.
Chain of Metabotropic glutamate receptor 4 (Homo sapiens, UniProt Q14833) (Q14833 whole entry): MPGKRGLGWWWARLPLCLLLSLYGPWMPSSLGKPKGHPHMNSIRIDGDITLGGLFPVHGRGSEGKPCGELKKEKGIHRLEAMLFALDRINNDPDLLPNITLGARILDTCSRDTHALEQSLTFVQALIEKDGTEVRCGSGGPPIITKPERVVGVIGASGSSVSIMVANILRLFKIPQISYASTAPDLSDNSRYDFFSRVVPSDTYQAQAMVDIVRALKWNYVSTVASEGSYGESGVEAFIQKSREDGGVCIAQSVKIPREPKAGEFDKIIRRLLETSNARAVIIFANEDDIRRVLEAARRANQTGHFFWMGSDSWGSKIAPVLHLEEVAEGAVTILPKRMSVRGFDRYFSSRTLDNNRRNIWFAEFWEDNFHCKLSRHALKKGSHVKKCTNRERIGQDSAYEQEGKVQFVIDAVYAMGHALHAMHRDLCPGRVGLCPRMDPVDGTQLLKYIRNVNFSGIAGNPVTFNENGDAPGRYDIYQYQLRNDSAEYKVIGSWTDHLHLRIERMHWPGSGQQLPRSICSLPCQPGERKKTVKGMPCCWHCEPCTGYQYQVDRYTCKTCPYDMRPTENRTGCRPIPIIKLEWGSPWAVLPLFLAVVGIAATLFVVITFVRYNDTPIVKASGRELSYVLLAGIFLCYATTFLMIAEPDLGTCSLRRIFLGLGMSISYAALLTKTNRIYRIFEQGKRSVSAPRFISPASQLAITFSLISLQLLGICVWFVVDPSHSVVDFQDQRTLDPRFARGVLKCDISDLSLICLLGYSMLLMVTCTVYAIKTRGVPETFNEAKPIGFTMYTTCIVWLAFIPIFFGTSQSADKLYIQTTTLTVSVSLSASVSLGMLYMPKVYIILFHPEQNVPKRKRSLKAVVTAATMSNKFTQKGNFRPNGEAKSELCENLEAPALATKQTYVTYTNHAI

Chain of CAAX prenyl protease 1 (P47154 whole entry): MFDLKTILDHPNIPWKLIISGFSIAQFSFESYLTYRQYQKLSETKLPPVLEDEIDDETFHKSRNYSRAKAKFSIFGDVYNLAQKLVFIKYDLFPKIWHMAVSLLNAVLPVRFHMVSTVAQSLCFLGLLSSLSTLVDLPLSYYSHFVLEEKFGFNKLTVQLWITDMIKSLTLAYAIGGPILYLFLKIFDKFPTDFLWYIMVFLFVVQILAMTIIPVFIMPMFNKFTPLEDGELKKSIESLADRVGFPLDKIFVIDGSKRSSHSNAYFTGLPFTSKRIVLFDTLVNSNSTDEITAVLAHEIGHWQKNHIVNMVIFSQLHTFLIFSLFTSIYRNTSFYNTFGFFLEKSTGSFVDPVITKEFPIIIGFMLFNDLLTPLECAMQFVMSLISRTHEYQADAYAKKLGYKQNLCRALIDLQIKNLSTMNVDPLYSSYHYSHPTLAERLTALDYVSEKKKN
Chain of CAAX prenyl protease 2 (Homo sapiens, UniProt Q9Y256) (Q9Y256 whole entry): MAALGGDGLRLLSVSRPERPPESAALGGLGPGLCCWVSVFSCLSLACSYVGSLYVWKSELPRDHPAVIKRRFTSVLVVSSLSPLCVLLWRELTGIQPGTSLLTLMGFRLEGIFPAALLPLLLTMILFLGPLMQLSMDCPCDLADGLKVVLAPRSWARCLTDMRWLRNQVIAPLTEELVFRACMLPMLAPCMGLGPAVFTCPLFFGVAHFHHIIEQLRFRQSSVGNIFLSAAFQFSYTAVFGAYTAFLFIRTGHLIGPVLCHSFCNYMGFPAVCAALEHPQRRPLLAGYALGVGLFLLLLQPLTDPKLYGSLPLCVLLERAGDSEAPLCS
Chain of Cyclin-dependent kinase 5/CDK5 activator 1 (Q00535 whole entry): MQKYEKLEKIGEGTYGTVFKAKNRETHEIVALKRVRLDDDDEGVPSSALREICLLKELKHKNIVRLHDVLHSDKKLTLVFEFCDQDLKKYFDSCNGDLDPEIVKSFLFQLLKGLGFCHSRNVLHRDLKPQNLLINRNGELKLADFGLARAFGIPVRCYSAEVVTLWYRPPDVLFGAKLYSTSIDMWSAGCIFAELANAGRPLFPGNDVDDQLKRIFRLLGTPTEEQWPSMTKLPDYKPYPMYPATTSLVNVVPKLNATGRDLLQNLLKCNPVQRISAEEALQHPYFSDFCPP
Chain of Cyclin-dependent kinase 5/CDK5 activator 1 (Q15078 whole entry, further chain): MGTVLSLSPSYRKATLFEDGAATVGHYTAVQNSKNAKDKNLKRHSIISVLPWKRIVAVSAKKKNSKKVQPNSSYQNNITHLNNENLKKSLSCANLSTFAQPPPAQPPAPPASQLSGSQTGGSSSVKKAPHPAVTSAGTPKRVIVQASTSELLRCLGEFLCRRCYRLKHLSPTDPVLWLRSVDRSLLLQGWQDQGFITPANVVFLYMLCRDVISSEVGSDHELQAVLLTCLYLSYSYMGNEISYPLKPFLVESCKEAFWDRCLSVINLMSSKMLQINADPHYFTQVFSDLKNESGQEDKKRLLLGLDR
Chain of Neurotensin receptor type 1 (P30989 whole entry, the tested form may be a part): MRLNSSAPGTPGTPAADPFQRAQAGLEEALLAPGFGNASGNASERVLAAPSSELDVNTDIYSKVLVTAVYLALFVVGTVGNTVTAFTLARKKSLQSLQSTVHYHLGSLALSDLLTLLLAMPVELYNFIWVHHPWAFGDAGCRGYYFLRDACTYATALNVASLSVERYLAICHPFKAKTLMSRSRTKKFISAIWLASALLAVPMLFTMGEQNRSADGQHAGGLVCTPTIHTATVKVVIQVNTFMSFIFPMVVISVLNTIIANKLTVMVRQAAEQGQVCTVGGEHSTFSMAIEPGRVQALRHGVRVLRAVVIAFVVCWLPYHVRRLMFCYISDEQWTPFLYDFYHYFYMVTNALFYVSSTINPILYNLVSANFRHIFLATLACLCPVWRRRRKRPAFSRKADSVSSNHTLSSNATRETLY

Regarding `Cc1cccc(NCc2nc3ccccc3n2C)c1`, the EC50 was 0.296 µM (active) in [1]; 3.39 µM (active) in assay [2]; 8.1 µM (active) in [3]; > 120 µM (not active) in [4]; 0.752 µM (active) in assay [5]; 1.63 µM (active) in [6]. The EC50 in assay [7] is 201 µM (active).
Take `Cc1ccc2nc(-c3ccccc3)cn2c1`: the EC50 is 9.54 µM (active) in assay [8]; 2.18 µM (active) in [11]; 0.717 µM (active) in assay [12]; 7.45 µM (active) in assay [14]; 1.58 µM (active) in assay [16]; > 150 µM (inconclusive) in assay [17]. Besides, the EC50 is 8.72 µM (active) in [18], 1.32 µM (active) in [21] and 9.05 µM (active) in assay [22]. Moreover, the AC50 in assay [9] is > 100 µM (inactive); in assay [10] it was 7.44 µM (active); in assay [13], 59.9 µM (active); in assay [15] it was > 100 µM (inactive); in assay [19], 59.3 µM (active); in assay [20], 18.6 µM (active).
On to `O=C1NC(=O)C(=Cc2cn(CCOc3ccc4c(c3)OCO4)c3ccccc23)C(=O)N1`, for which the results for the EC50 in [23], in [24] and in [25] were 4.12 µM (active), 16.7 µM (active) and 11.9 µM (active), respectively.
In the case of `CCc1sc(N2C(=O)C3C4CCC(C4=C(C)C)C3C2=O)nc1-c1ccccc1` (centres undefined), the AC50 in [26] is 0.635 µM (active).
As to `O=C(Nc1nnc(/C=C/c2ccccc2)s1)c1ccco1`, in assay [27], the IC50 was > 75 µM (active).
`O=C(Nc1ccc(N2C(=O)[C@@H]3[C@H](C2=O)[C@@H]2CC[C@H]3O2)c(Cl)c1)c1ccccn1`: the EC50 was 2.29 µM (active) in [28] and 1.44 µM (active) in assay [29].

For orientation: EC50 means the midpoint of the concentration-response curve. As a reminder, the AC50 is the concentration at which the activity in the assay is half-maximal. What is called IC50 is the midpoint of a concentration-inhibition curve.
